Data taken from patent publication US20240124454A1, “TRICYCLIC COMPOUND AND USE THEREOF” (NANJING ZAIMING PHARMACEUTICAL CO., LTD., priority 2020, published 2024).
Read-outs that look alike come from different tables or passages of the source.

Columns and labels:
HCT116 WT cells = assay: Cell proliferation inhibition test (Cell-Titer Glo), HCT116 WT; format: cell-based, human; details: 6 days, read-out: HCT116 WT Antiproliferative activity IC50
In short: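 Cells seeded at 400 per well, overnight, then exposed 6 days at 37 °C to compound from 10 μM top final concentration in 3-fold dilutions. Viability by ATP luminescence (Cell-Titer Glo), normalised to medium-only and DMSO controls, IC50 by curve fitting.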

CYP3A4 = CYP3A4 (Homo sapiens (Human), UniProt P08684); assay: CYP3A4 inhibition in human liver microsomes (midazolam substrate); format: in vitro ADME; details: human liver microsome
Sequence of CYP3A4 (P08684 whole entry): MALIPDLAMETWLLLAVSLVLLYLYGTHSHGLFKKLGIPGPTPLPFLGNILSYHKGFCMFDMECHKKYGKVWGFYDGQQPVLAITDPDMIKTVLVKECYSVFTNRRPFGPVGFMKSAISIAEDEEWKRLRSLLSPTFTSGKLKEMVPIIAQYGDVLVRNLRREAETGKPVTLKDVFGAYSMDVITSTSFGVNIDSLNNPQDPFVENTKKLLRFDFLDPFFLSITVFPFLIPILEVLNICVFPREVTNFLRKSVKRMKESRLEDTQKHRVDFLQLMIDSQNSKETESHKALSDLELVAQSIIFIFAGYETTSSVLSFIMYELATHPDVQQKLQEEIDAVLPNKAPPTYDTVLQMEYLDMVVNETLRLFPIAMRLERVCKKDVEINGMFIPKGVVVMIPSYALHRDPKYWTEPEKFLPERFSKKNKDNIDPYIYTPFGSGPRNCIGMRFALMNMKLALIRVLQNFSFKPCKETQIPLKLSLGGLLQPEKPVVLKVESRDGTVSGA
Description: Test Example 7. Inhibitory Effect of Compound of the Present Application on Enzymatic Activity of CYP2C9, CYP2D6, and CYP3A4
The inhibition of CYP2C9, CYP2D6, and CYP3A4 activity by the compound of the present application was determined using the following method.
I. Experimental materials and instruments • 1. Human liver microsome (Corning 452117) • 2. NADPH (Solarbio 705Y021) • 3. Positive substrates diclofenac (Sigma SLBV3438), dextromethorphan (TRC 3-EDO-175-1), and midazolam (Cerilliant FE01161704) • 4. Positive inhibitors sulfaphenazole (D. Ehrenstorfer GmbH 109012), quinidine (TCI WEODL-RE), and ketoconazole (Sigma 100M1091V) • 5. AB Sciex Triple Quad 5500 liquid chromatography-mass spectrometry system
1. Preparation of 100 mM phosphate-buffered saline (PBS): 7.098 g Na2HPO4 was weighed. 500 mL pure water was added. The mixture was dissolved by sonication to give solution A. 3.400 g KH2PO4 was weighed. 250 mL pure water was added. The mixture was dissolved by sonication to give solution B. The solution A was placed in a stirrer, and the solution B was slowly added until the pH reached 7.4, so that the 100 mM PBS buffer was prepared.
2. A 10 mM NADPH solution was prepared with a 100 mM PBS buffer. A 10 mM stock solution of the compound of the present application was diluted with DMSO to give a compound working solution at a concentration of 200×(6000, 2000, 600, 200, 60, 20, and 0 μM). The positive inhibitor stock solution was diluted with DMSO to give a positive inhibitor working solution at a concentration of 200×(sulfaphenazole, 1000, 300, 100, 30, 10, 3, and 0 μM; quinidine/ketoconazole, 100, 30, 10, 3, 1, 0.3, and 0 μM). Substrate working solutions (120 μM diclofenac, 400 μM dextromethorphan, and 200 μM midazolam) at a concentration of 200× were prepared with water, acetonitrile, or acetonitrile/methanol.
3. 2 μL of 20 mg/mL liver microsome solution, 1 μL of substrate working solution, 1 μL of compound working solution, and 176 μL of PBS buffer were taken, mixed well, and placed in a 37° C. water bath for pre-incubation for 15 min. 1 μL of sulfaphenazole, quinidine, or ketoconazole working solution was added to the positive control group instead of the compound working solution. At the same time, 10 mM NADPH solution was placed together in the 37° C. water bath for pre-incubation for 15 min. After 15 min, 20 μL of NADPH was added to each well to initiate the reaction. The mixture was incubated at 37° C. for 5 min (CYP2C9), 20 min (CYP2D6), or 5 min (CYP3A4). All incubated samples were in duplicate. After incubation for the corresponding period of time, 400 μL of icy methanol containing internal standard was added to all samples to stop the reaction. The mixture was vortexed, mixed well, and centrifuged for 40 min at 4° C. at 3220 g. 100 μL of the supernatant was transferred to a feeding plate after the centrifugation was completed, and 100 μL ultrapure water was added. The mixture was well mixed for LC-MS/MS analysis.
The reduction of metabolite production in the treatment groups versus the control group was compared by the peak area ratios of the sample to the internal standard, and the IC50 value was calculated using Excel XLfit 5.3.1.3.
Percentages of remaining activity were calculated according to the following formula:
Remaining activity%=peak area ratio of metabolite to internal standardtest sample/peak area ratio of metabolite to internal standardblank solvent×100%.

SMILES	IC50 (HCT116 WT cells; Homo sapiens, HCT-116, 144 h)	IC50 (CYP3A4)	IC50 (HCT116 WT cells)
Cc1ncccc1-n1c(=O)c2ncn(C)c2c2ccc(C(F)(F)F)nc21 (atropisomer, axis not shown) [Compound 20, 1-methyl-5-(2-methylpyridin-3-yl)-7-(trifluoromethyl)-1,5-dihydro-4H-imidazo[4,5-c][1,8]naphthyridin-4-one]	474 nM	> 30 µM	
Cn1cnc2c(=O)n(-c3cccc(F)c3Cl)c3nc(C(F)(F)F)ccc3c21 (atropisomer, axis not shown) [Compound 25, 5-(2-chloro-3-fluorophenyl)-1-methyl-7-(trifluoromethyl)-1,5-dihydro-4H-imidazo[4,5-c][1,8]naphthyridin-4-one]	663 nM	> 30 µM	
Cn1cnc2c(=O)n(-c3cccc(F)c3Cl)c3nc(C(F)(F)F)ccc3c21 (single isomer, unassigned) [Compound 25-P2, 5-(2-chloro-3-fluorophenyl)-1-methyl-7-(trifluoromethyl)-1,5-dihydro-4H-imidazo[4,5-c][1,8]naphthyridin-4-one]	384 nM	> 30 µM	
Cn1cnc2c(=O)n(-c3cccnc3C(F)(F)F)c3nc(C(F)(F)F)ccc3c21 (single isomer, unassigned) [Compound 41-P2, 1-methyl-7-(trifluoromethyl)-5-(2-(trifluoromethyl)pyridin-3-yl)-1,5-dihydro-4H-imidazo[4,5-c][1,8]naphthyridin-4-one]	3820 nM	> 30 µM	
Cn1cnc2c(=O)n(-c3cccnc3C3CC3)c3nc(C(F)(F)F)ccc3c21 (single isomer, unassigned) [Compound 42-P2, 5-(2-cyclopropylpyridin-3-yl)-1-methyl-7-(trifluoromethyl)-1,5-dihydro-4H-imidazo[4,5-c][1,8]naphthyridin-4-one]	1320 nM	> 30 µM	
Cn1cnc2c(=O)n(-c3cccnc3C3CC3)c3cc(C(F)(F)F)ccc3c21 (single isomer, unassigned) [Compound 48-P2, 5-(2-cyclopropylpyridin-3-yl)-1-methyl-7-(trifluoromethyl)-1,5-dihydro-4H-imidazo[4,5-c]quinolin-4-one]	> 10000 nM	> 30 µM	
Cn1cnc2c(=O)n(-c3cccnc3C3CC3)c3cc(Cl)ccc3c21 (single isomer, unassigned) [Compound 49-P2, 7-chloro-5-(2-cyclopropylpyridin-3-yl)-1-methyl-1,5-dihydro-4H-imidazo[4,5-c]quinolin-4-one]	488 nM	> 30 µM	
O=c1c2ncoc2c2ccc(C(F)(F)F)nc2n1-c1cccnc1C1CC1 (single isomer, unassigned) [Compound 81-P2, 5-(2-cyclopropylpyridin-3-yl)-7-(trifluoromethyl)oxazolo[4,5-c][1,8]naphthyridin-4(5H)-one]	1340 nM	> 30 µM	
Cn1cnc2c(=O)n(-c3cccc(F)c3Cl)c3cc(Cl)ccc3c21 [Compound 39, 7-chloro-5-(2-chloro-3-fluorophenyl)-1-methyl-1,5-dihydro-4H-imidazo[4,5-c]quinolin-4-one]		> 30 µM	626 nM
Cc1ncccc1-n1c(=O)c2ncoc2c2ccc(C(F)(F)F)nc21 [Compound 40, 5-(2-methylpyridin-3-yl)-7-(trifluoromethyl)oxazolo[4,5-c][1,8]naphthyridin-4(5H)-one]	414 nM	> 30 µM	
Cc1ncccc1-n1c(=O)c2ncn(C)c2c2ccc(C(F)(F)F)cc21 [Compound 45, 1-methyl-5-(2-methylpyridin-3-yl)-7-(trifluoromethyl)-1,5-dihydro-4H-imidazo[4,5-c]quinolin-4-one]	902 nM	> 30 µM	
